Tests used:
Experiment in all cases: Test F preemergence
Details in all cases: 21 days, scale 0 to 100
[1] = test system: bermudagrass; format: in vivo, Cynodon dactylon
From the text: (§1) Seeds of plant species selected from bermudagrass (Cynodon dactylon), surinam grass (Brachiaria decumbens), large (Lg) crabgrass (Digitaria sanguinalis), crabgrass, naked (naked crabgrass, Digitaria nuda), foxtail, green (green foxtail, Setaria viridis), johnsongrass (Sorghum halepense), kochia (Kochia scoparia), morningglory (pitted morningglory, Ipomoea lacunosa), nutsedge, purple (purple nutsedge, Cyperus rotundus), ragweed (common ragweed, Ambrosia elatior), mustard, black (black mustard, Brassica nigra), guineagrass (Panicum maximum), dallisgrass (Paspalum dilatatum), barnyardgrass (Echinochloa crus-galli), sandbur (southern sandbur, Cenchrus echinatus), sowthistle (common sowthistle, Sonchus oleraceous), Italian ryegrass (Lolium multiflorum), signalgrass (broadleaf signalgrass, Brachiaria platyphylla), dayflower (Virginia (VA) dayflower, Commelina virginica), bluegrass (annual bluegrass, Poa annua), quackgrass (Elytrigia repens), mallow (common mallow, Malva sylvestris), buckwheat, wild (wild buckwheat, Polygonum convolvulus), leafy spurge (Euphorbia esula), chickweed (common chickweed, Stellaria media), wild poinsettia (Euphorbia heterophylla), and pigweed (Amaranthus retroflexus) were planted into a blend of loam soil and sand and treated preemergence with test chemicals formulated in a non-phytotoxic solvent mixture which included a surfactant.
(§2) Treated plants and controls were maintained in a greenhouse for 21 days, after which time all species were compared to controls and visually evaluated. Plant response ratings, summarized in Table F, are based on a scale of 0 to 100 where 0 is no effect and 100 is complete control. A dash (-) response means no test result.

[2] = test system: large (Lg) crabgrass; format: in vivo, Digitaria sanguinalis
From the text: as §1, §2

[3] = test system: foxtail, green; format: in vivo, Setaria viridis
From the text: as §1, §2

[4] = test system: ragweed; format: in vivo, Ambrosia elatior
From the text: as §1, §2

[5] = test system: dallisgrass; format: in vivo, Paspalum dilatatum
From the text: as §1, §2

[6] = test system: sowthistle; format: in vivo, Sonchus oleraceous
From the text: as §1, §2

[7] = test system: chickweed; format: in vivo, Stellaria media
From the text: as §1, §2

N#Cc1cccc(Oc2ncc(Cl)cn2)c1-n1cc(C(F)(F)F)cn1 [Compound 58, 3-[(5-chloro-2-pyrimidinyl)oxy]-2-[4-(trifluoromethyl)-1H-pyrazol-1-yl]benzonitrile]
Plant response rating, Bermudagrass ([1]; 16 g ai/ha): 95 | Plant response rating, Bermudagrass ([1]; 31 g ai/ha): 100 | Plant response rating, Bermudagrass ([1]; 62 g ai/ha): 100 | Plant response rating, Bermudagrass ([1]; 125 g ai/ha): 100 | Plant response rating, Bermudagrass ([1]; 250 g ai/ha): 100 | Plant response rating, Crabgrass, Large ([2]; 16 g ai/ha): 100 | Plant response rating, Crabgrass, Large ([2]; 31 g ai/ha): 100 | Plant response rating, Crabgrass, Large ([2]; 62 g ai/ha): 100 | Plant response rating, Crabgrass, Large ([2]; 125 g ai/ha): 100 | Plant response rating, Crabgrass, Large ([2]; 250 g ai/ha): 100 | Plant response rating, Foxtail, Green ([3]; 16 g ai/ha): 75 | Plant response rating, Foxtail, Green ([3]; 31 g ai/ha): 100 | Plant response rating, Foxtail, Green ([3]; 62 g ai/ha): 100 | Plant response rating, Foxtail, Green ([3]; 125 g ai/ha): 100 | Plant response rating, Foxtail, Green ([3]; 250 g ai/ha): 100 | Plant response rating, Ragweed ([4]; 16 g ai/ha): 60 | Plant response rating, Ragweed ([4]; 31 g ai/ha): 65 | Plant response rating, Ragweed ([4]; 62 g ai/ha): 70 | Plant response rating, Ragweed ([4]; 125 g ai/ha): 75 | Plant response rating, Ragweed ([4]; 250 g ai/ha): 95 | Plant response rating, Dallisgrass ([5]; 16 g ai/ha): 90 | Plant response rating, Dallisgrass ([5]; 31 g ai/ha): 100 | Plant response rating, Dallisgrass ([5]; 62 g ai/ha): 100 | Plant response rating, Dallisgrass ([5]; 125 g ai/ha): 100 | Plant response rating, Dallisgrass ([5]; 250 g ai/ha): 100 | Plant response rating, Sowthistle ([6]; 16 g ai/ha): 100 | Plant response rating, Sowthistle ([6]; 31 g ai/ha): 100 | Plant response rating, Sowthistle ([6]; 62 g ai/ha): 100 | Plant response rating, Sowthistle ([6]; 125 g ai/ha): 100 | Plant response rating, Sowthistle ([6]; 250 g ai/ha): 100 | Plant response rating, Chickweed ([7]; 16 g ai/ha): 100 | Plant response rating, Chickweed ([7]; 31 g ai/ha): 100 | Plant response rating, Chickweed ([7]; 62 g ai/ha): 100 | Plant response rating, Chickweed ([7]; 125 g ai/ha): 100 | Plant response rating, Chickweed ([7]; 250 g ai/ha): 100
